In one data set the test system is Pythium ultimum. Briefly: Pythium ultimum / liquid culture (seedling damping off). The class given is cell-based. Conditions: Globisporangium ultimum; 200 ppm; potato dextrose broth, 24° C., 2-3 days after application; read-out: disease control (inhibition of growth determined photometrically).
For data set [1], the system named is Monographella nivalis (Microdochium nivale). Briefly: Monographella nivalis (Microdochium nivale) / liquid culture (foot rot cereals). The class given is cell-based. Conditions: PDB potato dextrose broth, 24° C., 4-5 days after application, read-out: disease control (inhibition of growth determined photometrically).
Data set [2] concerns Glomerella lagenarium (Colletotrichum lagenarium). Description: Glomerella lagenarium (Colletotrichum lagenarium) / liquid culture (anthracnose). It is filed as cell-based. Conditions: Colletotrichum orbiculare, PDB potato dextrose broth, 24° C., 3-4 days after application, read-out: disease control (inhibition of growth measured photometrically). In short, it runs like this:
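Conidia of G. lagenarium from cryogenic storage were suspended in potato dextrose broth and added to test compound in DMSO at 200 ppm. Plates were incubated at 24° C, and growth inhibition was read photometrically 3-4 days after application.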

The test system of another data set is Sclerotinia sclerotiorum. Description: Sclerotinia sclerotiorum / liquid culture (cottony rot). It is filed as cell-based. The note with it: PDB potato dextrose broth, 24° C., 3-4 days after application, read-out: disease control (inhibition of growth determined visually). The protocol:
18. Sclerotinia sclerotiorum/Liquid Culture (Cottony Rot): Mycelia fragments of a newly grown liquid culture of the fungus were directly mixed into nutrient broth (PDB potato dextrose broth). After placing a (DMSO) solution of the test compounds into a microtiter plate (96-well format) the nutrient broth containing the fungal material was added. The test plates were incubated at 24° C. and the inhibition of growth was determined visually 3-4 days after application.

Data set [3] deals with Mycosphaerella arachidis (Cercospora arachidicola). Description: Mycosphaerella arachidis (Cercospora arachidicola) / liquid culture (early leaf spot). It is filed as cell-based. Conditions: PDB potato dextrose broth, 24° C., 4-5 days after application, read-out: disease control (inhibition of growth determined photometrically). In outline:
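Conidia from cryogenic storage mixed into potato dextrose broth and added to compound at 200 ppm in DMSO. Incubation at 24° C.; growth inhibition read photometrically 4-5 days after application.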

The subject of data set [4] is Botryotinia fuckeliana (Botrytis cinerea). Briefly: Botryotinia fuckeliana (Botrytis cinerea) / liquid culture (gray mould). It is filed as cell-based. The note with it: Vogels broth, 24° C., 3-4 days after application, read-out: disease control (inhibition of growth determined photometrically). The protocol:
10. Botryotinia fuckeliana (Botrytis cinerea)/Liquid Culture (Gray Mould): Conidia of the fungus from cryogenic storage were directly mixed into nutrient broth (Vogels broth). After placing a DMSO solution of test compound into a 96-well microtiter plate at an application rate of 200 ppm, the nutrient broth containing the fungal spores was added. The test plates were incubated at 24° C. and the inhibition of growth was determined photometrically 3-4 days after application.

The test system of another data set is Plasmopara viticola. Briefly: whole plant or invertebrate. It is filed as in vivo. The note with it: foliar, read-out: disease control.
In a further data set the test system is Gaeumannomyces graminis. Description: Gaeumannomyces graminis / liquid culture (take-all of cereals). It is filed as cell-based. Conditions: PDB potato dextrose broth, 24° C., 4-5 days after application, read-out: disease control (inhibition of growth determined photometrically). In outline:
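Cryo-stored mycelial fragments in potato dextrose broth exposed to compound in DMSO at 200 ppm. Incubated at 24 °C; growth inhibition read photometrically 4–5 days after application.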

The next data set has as its system Fusarium culmorum. Description: microbe, parasite or virus in culture. The class given is cell-based. Conditions: read-out: disease control (inhibition of growth determined visually).
Data set [5] relates to Mycosphaerella graminicola (Septoria tritici). Briefly: Mycosphaerella graminicola (Septoria tritici) / liquid culture (Septoria blotch). The class given is cell-based. Conditions: Zymoseptoria tritici, PDB potato dextrose broth, 24° C., 4-5 days after application, read-out: disease control (inhibition of growth determined photometrically). In outline: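 Conidia from cryostorage were suspended in potato dextrose broth and added to test compound in DMSO at 200 ppm in microtiter wells. Plates were incubated at 24° C and growth inhibition measured photometrically 4-5 days after application.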

The test system of data set [6] is Thanatephorus cucumeris (Rhizoctonia solani). Description: Thanatephorus cucumeris (Rhizoctonia solani) / liquid culture (foot rot, damping-off). It is filed as cell-based. Conditions: PDB potato dextrose broth, 24° C., 3-4 days after application, read-out: disease control (inhibition of growth determined photometrically). In short, it runs like this:
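Mycelial fragments from fresh liquid culture were suspended in potato dextrose broth and added to compound in DMSO at 200 ppm. After 3-4 days at 24 °C, growth inhibition was measured photometrically.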

The subject of another data set is Phytophthora infestans. Description: whole plant or invertebrate. It is filed as in vivo. The note with it: in Solanum lycopersicum, foliar, read-out: disease control.
The subject of data set [7] is Puccinia recondita f. sp. tritici. Description: Puccinia recondita f. sp. tritici / wheat / leaf disc preventative (brown rust). It is filed as in vivo. Conditions: foliar, wheat leaf segments cv Kanzler, inoculated 1 day after application, assessed 7-9 days after application, read-out: disease control. From the text:
3. Puccinia recondita f. sp. tritici/Wheat/Leaf Disc Preventative (Brown Rust): Wheat leaf segments cultivated variety (cv) Kanzler were placed on agar in 24-well plates and sprayed with formulated test compound diluted in water at an application rate of 200 ppm. The leaf disks were inoculated with a spore suspension of the fungus 1 day after application.

We go through 15 compounds from patent publication US20170000133A1, “BENZOXABOROLE FUNGICIDES” (SYNGENTA PARTICIPATIONS AG, priority 2013, published 2017).

Molecules are shown by their SMILES.

As to `Cc1csc(NC(=O)c2cc3c(cc2Cl)COB3O)n1` [Compound 147], the inhibition at 200 ppm (in the data set on Pythium ultimum; in [1]; in data set [2]; with Sclerotinia sclerotiorum; in data set [3]) was ≥ 80% in each case.
On to `O=C(OCCc1c(Cl)cccc1Cl)c1ccc2c(c1)B(O)OC2` [Compound 373], for which the inhibition at 200 ppm (in data set [4]; in the data set with Gaeumannomyces graminis; in the data set with Fusarium culmorum; in data set [1]; in data set [5]) was ≥ 80% throughout. In addition, the pest or weed control at 200 ppm with Plasmopara viticola is ≥ 80%.
As for `C=CCC(OC(=O)c1cc2c(cc1F)COB2O)C(=O)OC` (stereo not drawn) [Compound 410], in the data set with Plasmopara viticola, the pest or weed control at 200 ppm is ≥ 80%. The inhibition at 200 ppm (with Gaeumannomyces graminis; in the data set on Pythium ultimum; in data set [1]; in [6]; in the data set with Sclerotinia sclerotiorum) was ≥ 80% each time.
Regarding `CC#CCOC(=O)c1ccc2c(c1)B(O)OC2` [Compound 323], the melting point was in the range of 154 to 155 °C. For the same compound, in the data set on Phytophthora infestans, the pest or weed control at 200 ppm is ≥ 80%. Also, the inhibition at 200 ppm in [4] is ≥ 80%. Moreover, the pest or weed control at 200 ppm in the data set on Plasmopara viticola was ≥ 80%. In the data set on Gaeumannomyces graminis, the inhibition at 200 ppm is ≥ 80%. In addition, the inhibition at 200 ppm with Pythium ultimum is ≥ 80%. Moreover, the inhibition at 200 ppm with Fusarium culmorum was ≥ 80%. In addition, the inhibition at 200 ppm in data set [1] is ≥ 80%. In addition, the inhibition at 200 ppm in data set [5] was ≥ 80%. The inhibition at 200 ppm in [6] is ≥ 80%. Further, the inhibition at 200 ppm in data set [3] was ≥ 80%.
As for `CCC#CCOC(=O)c1cc2c(cc1F)COB2O` [Compound 379], in the data set on Plasmopara viticola, the pest or weed control at 200 ppm is ≥ 80%. Further, the inhibition at 200 ppm (in the data set on Gaeumannomyces graminis; with Pythium ultimum; with Fusarium culmorum; in data set [1]; in data set [5]; in data set [2]) was ≥ 80% in each case. The inhibition at 200 ppm (in [6]; in the data set on Sclerotinia sclerotiorum; in data set [3]) was ≥ 80% in each case.
In turn, `O=C(OCc1cccc(F)c1)c1ccc2c(c1)B(O)OC2` [Compound 375] yielded a melting point of 125 to 127 °C. The inhibition at 200 ppm in [4] was ≥ 80%. In the data set with Gaeumannomyces graminis, the inhibition at 200 ppm is ≥ 80%. Moreover, the inhibition at 200 ppm in the data set with Pythium ultimum was ≥ 80%. The inhibition at 200 ppm in the data set with Fusarium culmorum is ≥ 80%. Moreover, the inhibition at 200 ppm in data set [1] was ≥ 80%. Moreover, the inhibition at 200 ppm in data set [5] is ≥ 80%. In data set [2], the inhibition at 200 ppm was ≥ 80%. In [6], the inhibition at 200 ppm is ≥ 80%. Moreover, the inhibition at 200 ppm in the data set on Sclerotinia sclerotiorum is ≥ 80%. In addition, the inhibition at 200 ppm in data set [3] was ≥ 80%.
On to `O=C(OCc1cccc(F)c1)c1cc2c(cc1F)COB2O` [Compound 434], for which the inhibition at 200 ppm (in [4]; in the data set on Gaeumannomyces graminis; in the data set with Pythium ultimum; in [1]; in data set [5]; in [2]) was ≥ 80% each time. For the same compound, the inhibition at 200 ppm in data set [6] and in data set [3] was ≥ 80% each time. For the same compound, the pest or weed control at 200 ppm with Plasmopara viticola was ≥ 80%.
In the case of `C=CCCOC(=O)c1cc2c(cc1F)COB2O` [Compound 389], the melting point was 107 to 109 °C. In addition, the inhibition at 200 ppm in the data set with Gaeumannomyces graminis was ≥ 80%. For the same compound, the inhibition at 200 ppm in the data set with Pythium ultimum is ≥ 80%. The inhibition at 200 ppm with Fusarium culmorum was ≥ 80%. In addition, in [1], the inhibition at 200 ppm is ≥ 80%. In data set [5], the inhibition at 200 ppm was ≥ 80%. In addition, in data set [2], the inhibition at 200 ppm is ≥ 80%. In data set [6], the inhibition at 200 ppm was ≥ 80%. Moreover, the inhibition at 200 ppm in the data set on Sclerotinia sclerotiorum is ≥ 80%. Also, in [3], the inhibition at 200 ppm was ≥ 80%.
The compound `COC(COC(=O)c1cc2c(cc1Cl)COB2O)OC` [Compound 449] returned a melting point of 122 to 124 °C. The inhibition at 200 ppm with Gaeumannomyces graminis is ≥ 80%. For the same compound, in the data set with Pythium ultimum, the inhibition at 200 ppm was ≥ 80%. For the same compound, in the data set with Fusarium culmorum, the inhibition at 200 ppm is ≥ 80%. In addition, the inhibition at 200 ppm in [1] was ≥ 80%. Besides, in data set [5], the inhibition at 200 ppm was ≥ 80%. Further, the inhibition at 200 ppm in data set [2] was ≥ 80%. For the same compound, in the data set on Sclerotinia sclerotiorum, the inhibition at 200 ppm was ≥ 80%. For the same compound, the inhibition at 200 ppm in data set [3] was ≥ 80%.
`O=C(OCC1CCC1)c1cc2c(cc1Cl)COB2O` [Compound 225]: the melting point lay within 115 to 117 °C. Moreover, the inhibition at 200 ppm in data set [4] was ≥ 80%. In addition, in the data set with Gaeumannomyces graminis, the inhibition at 200 ppm was ≥ 80%. The pest or weed control at 200 ppm in data set [7] was ≥ 80%. Further, in the data set on Pythium ultimum, the inhibition at 200 ppm was ≥ 80%. Besides, the inhibition at 200 ppm in data set [1] was ≥ 80%. The inhibition at 200 ppm in data set [5] is ≥ 80%. The inhibition at 200 ppm in data set [2] is ≥ 80%. For the same compound, in data set [6], the inhibition at 200 ppm is ≥ 80%. Further, in data set [3], the inhibition at 200 ppm was ≥ 80%.
Turning to `O=C(OCC#Cc1ccccc1)c1ccc2c(c1)B(O)OC2` [Compound 359], the inhibition at 200 ppm (in [4]; in the data set with Gaeumannomyces graminis; in the data set on Pythium ultimum; in the data set on Fusarium culmorum; in data set [1]; in [5]) was ≥ 80% throughout. Moreover, the inhibition at 200 ppm (in data set [6]; with Sclerotinia sclerotiorum; in data set [3]) was ≥ 80% each time. In the data set with Plasmopara viticola, the pest or weed control at 200 ppm was ≥ 80%.
As to `CCCCCCCOC(=O)c1ccc2c(c1)B(O)OC2` [Compound 317], the inhibition at 200 ppm (in data set [4]; in the data set on Gaeumannomyces graminis; in the data set on Pythium ultimum; in data set [1]; in [5]; in [2]) was ≥ 80% in each case. Further, the inhibition at 200 ppm in [6] and in data set [3] was ≥ 80% in each case. The pest or weed control at 200 ppm (with Plasmopara viticola; in [7]) was ≥ 80% in each case.
Consider `C=CCOC(=O)c1cc2c(cc1Cl)COB2O` [Compound 215], for which the inhibition at 200 ppm (with Gaeumannomyces graminis; in the data set with Pythium ultimum; in the data set on Fusarium culmorum; in data set [1]; in [5]; in data set [2]) was ≥ 80% in each case. Besides, the inhibition at 200 ppm (in [6]; in the data set on Sclerotinia sclerotiorum; in data set [3]) was ≥ 80% throughout.
Consider `O=C(OCC#Cc1ccccc1)c1cc2c(cc1F)COB2O` [Compound 422], for which the inhibition at 200 ppm (in data set [4]; in the data set with Gaeumannomyces graminis; with Pythium ultimum; with Fusarium culmorum; in data set [1]; in data set [5]) was ≥ 80% throughout. Besides, the inhibition at 200 ppm in data set [6] and in [3] was ≥ 80% in each case.
With `COC(=O)C#CCOC(=O)c1ccc2c(c1)B(O)OC2` [Compound 361], the inhibition at 200 ppm (in [4]; in the data set with Gaeumannomyces graminis; in the data set with Pythium ultimum; in the data set with Fusarium culmorum; in [1]; in data set [5]) was ≥ 80% throughout. Moreover, the inhibition at 200 ppm (in data set [2]; in data set [6]; with Sclerotinia sclerotiorum; in [3]) was ≥ 80% in each case. In addition, the pest or weed control at 200 ppm with Plasmopara viticola is ≥ 80%.

One may read the inhibition as the relative decrease from the control value, in per cent. The melting point is the temperature, or range, at which the solid turns liquid.
